In patent US20240208961A1, “EIF4E INHIBITORS AND USES THEREOF” (PIC Therapeutics, Inc., priority 2022, published 2024):
Where “and” joins values, the source holds several entries; their conditions need not be identical. Equal entries are not always repeated. Where two headings read alike, the source gives them in different places.

Columns and labels:
[1] = Pharmacokinetic studies of certain compounds in female Balb/c mice (Example 5); type: in vivo; conditions: for concentration at 0.5 hr / concentration at 1 hr / concentration at 2 hr / concentration at 4 hr: BALB/c
Method: Pharmacokinetic studies were performed using Balb/c mice, 15-20 g, 6-9 weeks, female, N=9, purchased from Jihui Laboratory Animal Co. LTD. For compound I-29, Balb/c mice, 19-21 g, 9-11 weeks, female, N=9, were used. The mice were fasted overnight and fed at 4 h post dosing.
Animals were dosed via oral gavage (PO) or tail vein injection (IV) with compound. Sampling occurred at 0.083, 0.25, 0.5, 1, 2, 4, 8, and 24 h post dose (8 time points). The animals were restrained manually at the designated time points. Approx. […] of blood was taken from the animals via facial vein for semi-serial bleeding into tubes with K2EDTA. Blood samples were put on ice and centrifuged at 4° C. (2000 g, 5 min) to obtain plasma within 15 min after sample collection. Plasma samples were stored in dry ice temporarily and at approximately −70° C. until analysis.
For oral gavage, the compound was dosed as a suspension in 1% sodium carboxymethyl cellulose (CMC) and 0.2% Tween 80 in water. For 23.8 mg/kg and 30 mg/kg doses, 3 mg/mL was used; for 50 mg/kg doses, 5 mg/mL was used; and for 100 mg/kg doses, 10 mg/mL was used.
For IV administration, the compound was dosed as a solution in 5% DMSO, 5% Solutol HS15 and 90% saline. For 1 mg/kg and 1.48 mg/kg doses, 0.2 mg/mL was used.
Plasma samples were analyzed using LC-MS using a calibration curve of known concentrations.
The results of these studies are summarized in Tables 11-21 below and in FIGS. 2-8. […] BQL=below quantifiable limit for compound in female Balb/c mouse plasma samples. NA=not available. PK parameters were estimated by non-compartmental model using WinNonlin 8.2. If the adjusted rsq (linear regression coefficient of the concentration value on the terminal phase) was less than 0.9, T1/2 might not have been accurately estimated. F value was determined by the following equation: • If AUClast/AUCINF>80%:
F=(AUCINF-EX×DOSEIV)/(AUCINF-IV×DOSEEX)[…] • If AUClast/AUCINF<80% or AUCINF not available:
F=(AUClast-EX×DOSEIV)/(AUClast-IV×DOSEEX)*1000

T47D = test: Cell viability assay, adherent cell line, 5 day Alamar Blue (Example 8): T47D; type: cell-based; conditions: Homo sapiens, 120 h, Breast Cancer Cell Viability
Method: (§1) Cell viability assays were performed on certain compounds of the disclosure, according to the following procedure.
(§2) Cell line specific media conditions used:
The procedure for adherent cell line compound screening was as follows:
• Cells were seeded in 96-well cell culture treated tissue culture plates: ZR-75-1, NIHOVCAR3, T47D, and LOVO cells 4000 cells/well; and HPAFII 3000 cell/well
Day 3: Compound Dilution and Dosing
(§3) • 5-fold serial dilution (8 point) of each compound in DMSO 0-25 mM in compound storage plates was prepared (stored at −80° C. if not to be used immediately). • Cells were rinsed with 1% FBS Media (appropriate to cell line as described above) and replaced with 87.5 μL media prior to dosing. HPAFII was screened in normal 10% FBS Media. • DMSO compound dilution series was diluted in 1% FBS media (appropriate to cell line as described above)—2 μL in 248 μL to give an 8× final concentration. • Cells were dosed 12.5 μL/well in triplicate to give final dose curved on cells 0-25 μM. • Media blank 100 μL/well×8 was set up. • All plates were incubated at 37° C.
Day 8: 5 Day Viability Assay
(§4) • Alamar Blue viability reagent was added (10 μL per well) and incubated for 3 hours at 37° C. prior to fluorescence detection (Ex560 nm/Em590 nm) on a Varioskan Lux multimode plate reader.
(§5) Results from cell viability assays are summarized in Table 23, wherein A represents IC50≤1 μM; B represents 1 μM<IC50≤8 μM; and C represents IC50>8 μM. Blank cells indicate that the compound was not tested in a particular assay.

NCIH510A = test: Cell viability assay, suspension cell line, 5 day Alamar Blue (Example 8): NCIH510A; type: cell-based; conditions: Homo sapiens, NCI-H510A, 120 h, Small Cell Lung Cancer Cell Line
Method: as §1, §2
The procedure for suspension cell line compound screening was as follows:
Day 1: Cell Seeding and Compound Dosing
as §3, with “• Cells were seeded 2×10^5 in 96-well cell culture treated tissue culture plates: 87.5 μL/well; MM.1 S, MM,1R, NCIH510A. • 5-fold” for “• 5-fold”, “to dosing. • DMSO” for “to dosing. HPAFII was screened in normal 10% FBS Media. • DMSO”
Day 6: 5 Day Viability Assay
as §4, §5

[2] = mouse, plasma, I-2 PO 100 mg/kg

CC(C)Cc1sc(Nc2ncc(-c3cccs3)cc2C(=O)O)nc1C1=CCCCC1 [Compound I-2]
Plasma concentration Individual ([1]; I-2 PO 30 mg/kg, 0.083 hr, 30 mg/kg): 106 ng/mL and 211 ng/mL and 94.1 ng/mL
Plasma concentration Individual ([1]; I-2 PO 30 mg/kg, 0.25 hr, 30 mg/kg): 663 ng/mL and 622 ng/mL
Plasma concentration Individual ([1]; I-2 PO 30 mg/kg, 0.5 hr, 30 mg/kg): 1380 ng/mL and 1170 ng/mL
Plasma concentration Individual ([1]; I-2 PO 30 mg/kg, 1 hr, 30 mg/kg): 2110 ng/mL and 1590 ng/mL
Plasma concentration Individual ([1]; I-2 PO 30 mg/kg, 2 hr, 30 mg/kg): 2640 ng/mL and 2190 ng/mL
Plasma concentration Individual ([1]; I-2 PO 30 mg/kg, 4 hr, 30 mg/kg): 1600 ng/mL
Plasma concentration Individual ([1]; I-2 PO 30 mg/kg, 8 hr, 30 mg/kg): 233 ng/mL and 261 ng/mL
Plasma concentration Individual ([1]; I-2 PO 30 mg/kg, 24 hr, 30 mg/kg): 7.09 ng/mL and 5.63 ng/mL
Plasma concentration Individual ([1]; I-2 PO 100 mg/kg, 0.083 hr, 100 mg/kg): 406 ng/mL and 159 ng/mL and 182 ng/mL
Plasma concentration Individual ([1]; I-2 PO 100 mg/kg, 0.25 hr, 100 mg/kg): 1310 ng/mL and 2360 ng/mL and 885 ng/mL
Plasma concentration Individual ([1]; I-2 PO 100 mg/kg, 0.5 hr, 100 mg/kg): 3290 ng/mL and 2960 ng/mL
Plasma concentration Individual ([1]; I-2 PO 100 mg/kg, 1 hr, 100 mg/kg): 3010 ng/mL and 3120 ng/mL
Plasma concentration Individual ([1]; I-2 PO 100 mg/kg, 2 hr, 100 mg/kg): 4510 ng/mL and 3430 ng/mL
Plasma concentration Individual ([1]; I-2 PO 100 mg/kg, 4 hr, 100 mg/kg): 3380 ng/mL and 1660 ng/mL and 2310 ng/mL
Plasma concentration Individual ([1]; I-2 PO 100 mg/kg, 8 hr, 100 mg/kg): 914 ng/mL and 861 ng/mL
Plasma concentration Individual ([1]; I-2 PO 100 mg/kg, 24 hr, 100 mg/kg): 19.7 ng/mL and 18.8 ng/mL and 37.7 ng/mL
concentration at 0.5 hr ([1]; female, mouse, plasma, po, 30 mg/kg, I-2 PO 30 mg/kg, 0.5 hr, read-out: Plasma concentration Individual): 1160 ng/mL
concentration at 0.5 hr ([1]; female, mouse, plasma, po, 30 mg/kg, I-2 PO 30 mg/kg, 0.5 hr, read-out: Plasma concentration Mean): 1240 ng/mL
concentration at 1 hr ([1]; female, mouse, plasma, po, 30 mg/kg, I-2 PO 30 mg/kg, 1 hr, read-out: Plasma concentration Individual): 1700 ng/mL
concentration at 1 hr ([1]; female, mouse, plasma, po, 30 mg/kg, I-2 PO 30 mg/kg, 1 hr, read-out: Plasma concentration Mean): 1800 ng/mL
concentration at 2 hr ([1]; female, mouse, plasma, po, 30 mg/kg, I-2 PO 30 mg/kg, 2 hr, read-out: Plasma concentration Individual): 2150 ng/mL
concentration at 2 hr ([1]; female, mouse, plasma, po, 30 mg/kg, I-2 PO 30 mg/kg, 2 hr, read-out: Plasma concentration Mean): 2330 ng/mL
concentration at 4 hr ([1]; female, mouse, plasma, po, 30 mg/kg, I-2 PO 30 mg/kg, 4 hr, read-out: Plasma concentration Individual): 1340 ng/mL
concentration at 4 hr ([1]; female, mouse, plasma, po, 30 mg/kg, I-2 PO 30 mg/kg, 4 hr, read-out: Plasma concentration Mean): 1510 ng/mL
concentration at 0.083 h ([1]; female, Balb/c, mouse, plasma, po, 30 mg/kg, I-2 PO 30 mg/kg, 0.083 hr, read-out: Plasma concentration Mean): 137 ng/mL
concentration at 0.25 h ([1]; female, Balb/c, mouse, plasma, po, 30 mg/kg, I-2 PO 30 mg/kg, 0.25 hr, read-out: Plasma concentration Individual): 472 ng/mL
concentration at 0.25 h ([1]; female, Balb/c, mouse, plasma, po, 30 mg/kg, I-2 PO 30 mg/kg, 0.25 hr, read-out: Plasma concentration Mean): 586 ng/mL
concentration at 8 hr ([1]; female, Balb/c, mouse, plasma, po, 30 mg/kg, I-2 PO 30 mg/kg, 8 hr, read-out: Plasma concentration Individual): 244 ng/mL
concentration at 8 h ([1]; female, Balb/c, mouse, plasma, po, 30 mg/kg, I-2 PO 30 mg/kg, 8 hr, read-out: Plasma concentration Mean): 246 ng/mL
concentration at 24 h ([1]; female, Balb/c, mouse, plasma, po, 30 mg/kg, I-2 PO 30 mg/kg, 24 hr, read-out: Plasma concentration Individual): 4.28 ng/mL
concentration at 24 h ([1]; female, Balb/c, mouse, plasma, po, 30 mg/kg, I-2 PO 30 mg/kg, 24 hr, read-out: Plasma concentration Mean): 5.67 ng/mL
concentration at 0.083 h ([1]; female, Balb/c, mouse, plasma, po, 100 mg/kg, I-2 PO 100 mg/kg, 0.083 hr, read-out: Plasma concentration Mean): 249 ng/mL
concentration at 0.25 h ([1]; female, Balb/c, mouse, plasma, po, 100 mg/kg, I-2 PO 100 mg/kg, 0.25 hr, read-out: Plasma concentration Mean): 1520 ng/mL
concentration at 0.5 h ([1]; female, Balb/c, mouse, plasma, po, 100 mg/kg, I-2 PO 100 mg/kg, 0.5 hr, read-out: Plasma concentration Individual): 2800 ng/mL
concentration at 0.5 h ([1]; female, Balb/c, mouse, plasma, po, 100 mg/kg, I-2 PO 100 mg/kg, 0.5 hr, read-out: Plasma concentration Mean): 3020 ng/mL
concentration at 1 h ([1]; female, Balb/c, mouse, plasma, po, 100 mg/kg, I-2 PO 100 mg/kg, 1 hr, read-out: Plasma concentration Individual): 4550 ng/mL
concentration at 1 h ([1]; female, Balb/c, mouse, plasma, po, 100 mg/kg, I-2 PO 100 mg/kg, 1 hr, read-out: Plasma concentration Mean): 3560 ng/mL
concentration at 2 h ([1]; female, Balb/c, mouse, plasma, po, 100 mg/kg, I-2 PO 100 mg/kg, 2 hr, read-out: Plasma concentration Individual): 3810 ng/mL
concentration at 2 h ([1]; female, Balb/c, mouse, plasma, po, 100 mg/kg, I-2 PO 100 mg/kg, 2 hr, read-out: Plasma concentration Mean): 3920 ng/mL
concentration at 4 h ([1]; female, Balb/c, mouse, plasma, po, 100 mg/kg, I-2 PO 100 mg/kg, 4 hr, read-out: Plasma concentration Mean): 2450 ng/mL
concentration at 8 h ([1]; female, Balb/c, mouse, plasma, po, 100 mg/kg, I-2 PO 100 mg/kg, 8 hr, read-out: Plasma concentration Individual): 1080 ng/mL
concentration at 8 h ([1]; female, Balb/c, mouse, plasma, po, 100 mg/kg, I-2 PO 100 mg/kg, 8 hr, read-out: Plasma concentration Mean): 952 ng/mL
concentration at 24 h ([1]; female, Balb/c, mouse, plasma, po, 100 mg/kg, I-2 PO 100 mg/kg, 24 hr, read-out: Plasma concentration Mean): 25.4 ng/mL
AUC(0-inf) ([1]; mouse, plasma, I-2 PO 30 mg/kg): 12500 ng·h/mL
AUC(0-t) ([1]; mouse, plasma, I-2 PO 30 mg/kg): 12500 ng·h/mL
Cmax ([1]; mouse, plasma, I-2 PO 30 mg/kg): 2330 ng/mL
MRT inf ([1]; mouse, plasma, I-2 PO 30 mg/kg): 3.85 h
MRT last ([1]; mouse, plasma, I-2 PO 30 mg/kg): 3.81 h
Tmax ([1]; mouse, plasma, I-2 PO 30 mg/kg): 2 h
half-life ([1]; mouse, plasma, I-2 PO 30 mg/kg): 156 min
AUC(0-inf) [1, 2]: 27200 ng·h/mL
AUC(0-t) [1, 2]: 27100 ng·h/mL
Cmax [1, 2]: 3920 ng/mL
MRT inf [1, 2]: 4.73 h
MRT last [1, 2]: 4.63 h
Tmax [1, 2]: 2 h
half-life [1, 2]: 182 min

CC(C)Cc1sc(Nc2ncc(-c3cccs3)cc2C(=O)O)nc1C(C)(C)C [Compound I-11]
IC50 (T47D): ≤ 1000 nM
IC50 (NCIH510A): ≤ 1000 nM
